Test results taken from patent publication US9902709B2, “Polysubstituted pyridine compound, preparation method, use and pharmaceutical composition” (PEKING UNIVERSITY FOUNDER GROUP CO., LTD., priority 2014, dated 2018).

Molecular target: VEGFR2 (Homo sapiens (Human), UniProt P35968)
Assay: Inhibitory activity of VEGFR2 kinase (HTRF KinEASE-TK kit)
Assay type: biochemical
Protocol: HTRF®KinEASE™-TK kit (Cat.62TKOPEC, Cisbio);
VEGFR2 (Cat: k2643, Sigma);
2.1 Preparation of VEGFR2 Kinase Reagent
1× kinase buffer: 1 mL 1× kinase buffer contained 200 μL 5× kinase buffer (Invitrogen), 5 μL, 1M MgCl2, 1 μL 1M DTT, 1 μL 1M MnCl2, and 793 μL ddH2O;
5×TK substrate-biotin and ATP working fluid: as the concentrations of TK substrate-biotin and ATP, please refer to Table 1. TK substrate-biotin and ATP were diluted with 1× kinase buffer to 5 folds of the reaction concentrations;
5× kinase working fluid: as the concentration of VEGFR2 kinase, please refer to Table 1. 5× kinase working fluid was prepared with 1× Kinase buffer;
4× Sa-XL665 working fluid: as the concentration of Sa-XL665 (Cisbio) in the reaction, please refer to Table 1. The 4× Sa-XL665 working fluid was prepared with assay buffer (Cisbio);
4×TK Ab-cryptate working fluid: TK Ab-Cryptate (Cisbio) was 100-fold diluted with assay buffer (Cisbio), as working fluid;
Experimental Procedure of HTRF KinEASE TK Kit
After all the reagents were prepared as described above, the reagents except for enzymes were equilibrated to room temperature, then adding samples were performed.
TK substrate-biotin, ATP, VEGFR2 kinase and a compound at a certain concentration were reacted in 1× kinase buffer at room temperature for 20 minutes. […] To all the reaction wells, 5 μl 4× Sa-XL665 working fluid and 5 μl 4×TK Ab-cryptate working fluid were added. After reacting at room temperature for 1 hours, fluorescence signal (excited at 320 nm, emitted at 665 nm, 615 nm) was detected by ENVISION detector (Perkinelmer). Based on the full-active well and the background signal well, the inhibition rate for each well was calculated, and the average value was used for duplicate wells. The half maximal inhibitory concentration (IC50) for each test compound was fitted by professional software Graphpad PRISM 5.0.
2.3 Data Analysis Emission light ratio (ER)=665 nm emission signal/615 nm emission signal Inhibition rate=(ERpositive−ERsample)/(ERpositive−ERnegative)*100%
HTRF KinEASE TK kit was used to determine the IC50 value of a compound for kinase VEGFR2. The final concentration of the compound started from 100 μM, and 4-fold gradient dilution was carried out to provide 10 concentrations. Duplicate wells were used for each concentration. The final concentration of DMSO was controlled to 1% in the reaction system.

Sequence of VEGFR2 (P35968 20-1356): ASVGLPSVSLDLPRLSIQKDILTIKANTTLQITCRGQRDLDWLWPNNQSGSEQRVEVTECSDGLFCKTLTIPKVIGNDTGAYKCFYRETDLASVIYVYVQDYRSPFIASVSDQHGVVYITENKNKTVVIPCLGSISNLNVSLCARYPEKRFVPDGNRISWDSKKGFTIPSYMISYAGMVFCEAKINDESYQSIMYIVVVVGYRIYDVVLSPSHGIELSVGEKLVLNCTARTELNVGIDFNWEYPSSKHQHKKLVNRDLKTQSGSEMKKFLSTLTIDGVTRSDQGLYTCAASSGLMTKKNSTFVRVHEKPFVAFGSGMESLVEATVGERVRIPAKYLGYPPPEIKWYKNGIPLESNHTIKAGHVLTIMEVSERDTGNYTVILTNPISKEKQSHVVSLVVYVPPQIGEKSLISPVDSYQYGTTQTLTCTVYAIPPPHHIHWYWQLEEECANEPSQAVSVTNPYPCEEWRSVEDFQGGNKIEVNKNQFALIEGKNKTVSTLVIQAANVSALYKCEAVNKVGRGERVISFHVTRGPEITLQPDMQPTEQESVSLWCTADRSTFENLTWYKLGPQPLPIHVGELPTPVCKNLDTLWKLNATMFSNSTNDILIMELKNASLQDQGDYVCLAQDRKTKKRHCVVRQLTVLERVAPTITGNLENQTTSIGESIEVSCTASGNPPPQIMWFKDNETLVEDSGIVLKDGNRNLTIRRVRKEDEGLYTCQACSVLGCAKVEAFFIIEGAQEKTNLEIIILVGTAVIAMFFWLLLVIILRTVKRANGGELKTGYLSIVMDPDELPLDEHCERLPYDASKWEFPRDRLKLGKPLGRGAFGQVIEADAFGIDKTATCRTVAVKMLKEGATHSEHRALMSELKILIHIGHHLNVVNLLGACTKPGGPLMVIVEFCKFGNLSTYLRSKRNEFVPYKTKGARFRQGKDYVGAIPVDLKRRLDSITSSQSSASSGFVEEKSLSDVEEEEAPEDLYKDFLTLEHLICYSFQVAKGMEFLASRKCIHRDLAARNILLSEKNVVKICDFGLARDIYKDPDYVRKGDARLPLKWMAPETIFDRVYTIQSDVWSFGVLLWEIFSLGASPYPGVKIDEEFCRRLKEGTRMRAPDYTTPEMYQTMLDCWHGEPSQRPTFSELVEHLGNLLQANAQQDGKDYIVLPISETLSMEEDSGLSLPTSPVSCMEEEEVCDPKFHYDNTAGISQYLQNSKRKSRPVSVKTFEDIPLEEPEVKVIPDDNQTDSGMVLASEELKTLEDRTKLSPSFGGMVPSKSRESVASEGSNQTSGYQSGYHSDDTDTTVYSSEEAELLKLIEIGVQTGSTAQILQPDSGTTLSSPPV

Cn1cc(-c2nccc(Oc3ccc(NC(=O)Nc4ccc(Cl)c(C(F)(F)F)c4)cc3)c2Cl)cn1 [Example 2, 1-(4-chloro-3-(trifluoromethyl)phenyl)-3-(4-(3-chloro-2-(1-methyl-pyrazol-4-yl)-pyridin-4-yl-oxy)phenyl)urea]
IC50 (ATP 5 μM, 20 minutes, room temperature): 55.5 nM
inhibitory activity as fold of that of Comparative compound 2 (VEGFR2 kinase): 3.4 fold
inhibitory activity as fold of that of Sorafenib (VEGFR2 kinase): 1.61 fold
IC50 value as fold of that of Comparative compound 2 (VEGFR2 kinase, ratio of IC50): 0.34 fold
IC50 value as fold of that of Sorafenib (free base) (VEGFR2 kinase, ratio of IC50): 0.62 fold
